Results as given in EP0450660B1, “Anti-atherosclerotic diaryl compound” (THE WELLCOME FOUNDATION LIMITED, priority 1988, dated 1990).

Experiments:
[1] = target: T1, ACAT (Homo sapiens, UniProt P35610); assay: In vitro inhibition of ACAT (radiometric, [14C]oleoyl CoA substrate, microsomal protein); format: biochemical; settings: enzyme derived from human embryo 407 intestinal epithelial cell line, 37°C, pH 7.0, 4 minutes, read-out: IC₅₀ for ACAT inhibition
T1 construct: Microsomal protein is therefore used as the source of both ACAT and cholesterol; endogenous in cells; host or cells: human embryo 407 intestinal epithelial cell line (microsomal fraction)
T1 sequence (P35610 1-550): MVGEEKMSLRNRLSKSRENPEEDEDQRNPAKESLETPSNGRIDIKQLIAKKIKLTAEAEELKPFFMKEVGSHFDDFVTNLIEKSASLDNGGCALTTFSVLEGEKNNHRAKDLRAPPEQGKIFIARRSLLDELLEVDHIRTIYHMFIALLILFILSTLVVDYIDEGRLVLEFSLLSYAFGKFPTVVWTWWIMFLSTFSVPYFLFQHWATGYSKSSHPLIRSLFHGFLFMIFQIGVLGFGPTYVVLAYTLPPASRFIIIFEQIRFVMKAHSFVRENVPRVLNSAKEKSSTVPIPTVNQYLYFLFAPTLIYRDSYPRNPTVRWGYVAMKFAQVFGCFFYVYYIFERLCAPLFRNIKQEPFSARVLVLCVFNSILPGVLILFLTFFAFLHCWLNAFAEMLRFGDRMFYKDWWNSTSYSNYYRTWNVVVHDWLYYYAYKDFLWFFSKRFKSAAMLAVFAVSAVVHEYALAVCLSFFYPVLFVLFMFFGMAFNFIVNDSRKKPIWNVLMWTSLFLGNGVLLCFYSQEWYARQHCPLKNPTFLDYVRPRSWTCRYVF
Procedure: In vitro inhibition of ACAT
The in vitro esterification of cholesterol in the presence of ACAT and the test compound was assayed radiometrically using [¹⁴C]oleoyl CoA as substrate: [¹⁴C]oleoyl CoA + cholesterol → [¹⁴C]oleoyl cholesterol + CoASH [formula]
The enzyme is membrane-associated in vivo. Microsomal protein is therefore used as the source of both ACAT and cholesterol. The compound of the invention was tested against enzyme derived from human embryo 407 intestinal epithelial cell line.
[¹⁴C]Oleoyl CoA was incubated with microsomal protein at 37°C, pH 7.0, in the presence of various concentrations of the test compound. After 4 minutes, the reaction was stopped by the addition of ice-cold chloroform/methanol containing a known amount of [³H]oleoyl cholesterol to compensate for the loss of any [¹⁴C] product. A known volume of the resulting lower phase, which contains lipidic material from the reaction, was dried, redissolved in hexane containing unlabelled oleoyl cholesterol (TLC marker) and run on a quantitative TLC plate (silica gel). The oleoyl cholesterol spot was visualised (iodine vapour), removed from the TLC plate and its radioactivity measured by scintillation counting.
A plot of ACAT inhibitory activity vs concentration was prepared for the test compound and the corresponding IC₅₀ determined.

[2] = tested on: isolated rat liver cells; assay: In vitro cytotoxicity: effects on metabolic competence of isolated rat liver cells; format: cell-based
Procedure: The cytotoxicity of the compound of the invention was investigated in vitro by studying its effects on the metabolic competence of isolated rat liver cells. […] A 15% decrease in ATP levels was observed after 90 minutes at a concentration of 100µM.

IC50 [1]: 22 nM
SMILES: CCCCCCCNC(=O)Nc1c(F)cc(F)cc1CCc1ccc(CC(C)(C)C)cc1 [compound of the invention, 1-[2,4-difluoro-6-{2-[4-(2,2-dimethylpropyl)phenyl]ethyl}phenyl]-3-heptylurea]
decrease in ATP levels ([2]; after 90 minutes at a concentration of 100µM): 15%
effect on gluconeogenesis ([2]; concentrations of up to 100µM): No effect
